Publication PMC7972453, “The allosteric modulation of complement C5 by knob domain peptides” (eLife, 2021)
pKd: −log10 of the molar value. Where two headings read alike, the source gives them in different places. Bridges are numbered along the chain shown (N, C = ends). Where no end group is shown, it is not given here.

Biological target: T1, human C5 (Homo sapiens, UniProt P01031)
T1 construct: tissue TCS Biosciences (serum); host or cells: human serum
Test: SPR multi-cycle kinetics, binding to C5
Conditions: for fold drop in affinity of alanine mutant: relative to unmodified K8 or K92, SPR multi-cycle kinetics, n = 3
Procedure: Kinetics were measured using a Biacore 8K (GE Healthcare, Amersham, UK) with a CM5 chip, which was prepared as follows: 1-ethyl-3-(−3-dimethylaminopropyl) carbodiimide hydrochloride (EDC)/N-hydroxysuccinimide (NHS) was mixed at 1:1 ratio (flow rate, 10 µL/min; contact time, 30 s), and human C5 at 1 µg/mL in pH 4.5 sodium acetate buffer was injected over flow cell one only (flow rate, 10 µL/min; contact time, 60 s). Final immobilisation levels in the range of 2000–3000 RUs were obtained to yield theoretical Rmax values of ~50–60 RU. […] After each injection, the surface was regenerated with two sequential injections of 2 M MgCl2 (flow rate, 30 µL/min; contact time, 30 s). Binding to the reference surface was subtracted, and the data were fitted to a single-site binding model using Biacore evaluation software.
Table 2.6. Validation of molecular interactions by peptide mutagenesis analysis.
Summary of SPR multi-cycle kinetics

[1] = Biacore 8K, HBS-EP pH 7.4, single-site model, mean of n=3, read-out: mean KD
[2] = pH 7.4, read-out: mean koff, Biacore 8K, HBS-EP pH 7.4, mean of n=3
[3] = pH 7.4, read-out: mean kon, Biacore 8K, CM5 chip, HBS-EP pH 7.4, mean of n=3

Substance | pKd [1] | pKd (replicate n=1, read-out: KD) | pKd (replicate n=2, read-out: KD) | pKd (replicate n=3, read-out: KD) | mean stoich. ratio (Biacore 8K, mean of n=3) | koff [2] | kon [3] | fold drop in affinity of alanine mutant | koff (replicate n=1) | kon (replicate n=1) | stoich. ratio (replicate n=1) | koff (replicate n=2) | kon (replicate n=2) | stoich. ratio (replicate n=2) | koff (replicate n=3) | kon (replicate n=3) | stoich. ratio (replicate n=3)
K92 F26A: alanine mutant of K92 (CPEGWSECGVAIYGYACGRWGCGHALNSGPNISP) | 7.73 | 7.83 | 7.67 | 7.70 | – | – | – | – | – | – | – | – | – | – | – | – | –
K92 W21A: alanine mutant of K92 (CPEGWSECGVAIYGYACGRAGCGHFLNSGPNISP) | 6.30 | 6.36 | 6.39 | 6.19 | – | – | – | – | – | – | – | – | – | – | – | – | –
SVCPDGFDWGYGCAAGSSRFCTAHDWCCYDERADSHTYGFCTGNRVENLYFQ (disulfide 3-28, 13-21, 27-41 (inferred)) [K8 R22A] | – | – | – | – | 0.27 | 0.000599 s⁻¹ | 54000 M⁻¹ s⁻¹ | twofold decrease in affinity | 0.000565 s⁻¹ | 59200 M⁻¹ s⁻¹ | 0.29 | 0.000672 s⁻¹ | 53500 M⁻¹ s⁻¹ | 0.24 | 0.000561 s⁻¹ | 49400 M⁻¹ s⁻¹ | 0.27
SVCPDGFDWGYGCAAGSSRFCTRHDWCCYDEAADSHTYGFCTGNRVENLYFQ (disulfide 3-28, 13-21, 27-41 (inferred)) [K8 R31A] | – | – | – | – | 0.75 | 0.00152 s⁻¹ | 462 M⁻¹ s⁻¹ | 715 -fold | 0.00182 s⁻¹ | 786 M⁻¹ s⁻¹ | 0.36 | 0.00125 s⁻¹ | 336 M⁻¹ s⁻¹ | 0.71 | 0.00149 s⁻¹ | 263 M⁻¹ s⁻¹ | 1.18
